According to patent publication EP0651055A2 (priority 1993, dated 1995):

Tests used:
[1] = target: T1, recombinant human acetylcholinesterase (HuAChE), wild type (Homo sapiens, UniProt P22303); details: read-out: Km (ATC); pH 8
[2] = target: recombinant HuAChE mutant Glu450Ala (Homo sapiens, UniProt P22303, E481A); assay type: biochemical
[3] = target: T1, recombinant human acetylcholinesterase (HuAChE), wild type; assay type: biochemical
[4] = target: recombinant HuAChE mutant Tyr337Ala (Homo sapiens, UniProt P22303, Y368A); assay type: biochemical
[5] = target: recombinant HuAChE mutant Glu202Gln (Homo sapiens, UniProt P22303, E233Q); assay type: biochemical
[6] = target: recombinant HuAChE mutant Phe338Ala (Homo sapiens, UniProt P22303, F369A); assay type: biochemical
CC(=O)SCC[N+](C)(C)C = experiment: purified protein, by the assay type; details: other: Tyr133Ala, sodium-phosphate buffer pH 8, 27°C
CC(=O)SCCC(C)(C)C = experiment: purified protein, by the assay type; details: pH 8.0; 27.0 °C

recombinant HuAChE mutant Phe338Ala, sequence (P22303 32-614 F369A limits assumed): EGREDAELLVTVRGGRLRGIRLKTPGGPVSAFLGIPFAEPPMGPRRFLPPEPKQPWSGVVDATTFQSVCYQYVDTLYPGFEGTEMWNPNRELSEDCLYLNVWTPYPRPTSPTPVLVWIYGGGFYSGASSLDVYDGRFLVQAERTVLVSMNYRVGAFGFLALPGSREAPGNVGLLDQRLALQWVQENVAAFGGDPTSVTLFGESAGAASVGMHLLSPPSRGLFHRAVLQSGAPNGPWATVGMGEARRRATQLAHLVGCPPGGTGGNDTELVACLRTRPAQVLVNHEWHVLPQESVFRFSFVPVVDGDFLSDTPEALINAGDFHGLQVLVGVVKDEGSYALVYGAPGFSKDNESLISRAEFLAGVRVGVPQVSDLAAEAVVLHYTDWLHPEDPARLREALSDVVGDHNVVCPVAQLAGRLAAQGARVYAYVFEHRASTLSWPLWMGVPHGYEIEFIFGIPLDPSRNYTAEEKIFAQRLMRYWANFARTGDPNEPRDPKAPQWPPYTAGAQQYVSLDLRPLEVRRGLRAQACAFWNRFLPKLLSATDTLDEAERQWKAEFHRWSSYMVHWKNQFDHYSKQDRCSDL
T1 sequence (P22303 32-614): as the sequence (P22303 32-614 F369A limits assumed) above, with A338F counted along it
recombinant HuAChE mutant Glu202Gln, sequence (P22303 32-614 E233Q limits assumed): as the sequence (P22303 32-614 F369A limits assumed) above, with E202Q, A338F counted along it
recombinant HuAChE mutant Tyr337Ala, sequence (P22303 32-614 Y368A limits assumed): as the sequence (P22303 32-614 F369A limits assumed) above, with Y337A, A338F counted along it
recombinant HuAChE mutant Glu450Ala, sequence (P22303 32-614 E481A limits assumed): as the sequence (P22303 32-614 F369A limits assumed) above, with A338F, E450A counted along it

Work on `CC(=O)SCC[N+](C)(C)C.[I-]` [ATC, Acetylthiocholine iodide] yielded a Km [1] of 130 ± 15 µM.
With `CCOP(=O)(OCC)Oc1ccc([N+](=O)[O-])cc1` [paraoxon] the “ki (paraoxon) relative to the wild type” value [2] was 1.9±0.7 (0.02), the “ki (paraoxon) relative to the wild type” value [3] was 97 ±16 (1.00) and the “ki (paraoxon) relative to the wild type” value [4] was 14.4±1.4 (0.15). For the same compound, the “ki, rate constant of phosphylation (paraoxon)” value (“ki, rate constant” below) ([4]; acetylcholinesterase) was 14.4±1.4 (0.15) x 10^-4.M^-1.min^-1, the “ki (paraoxon) relative to the wild type” value [5] was 2.8±0.48(0.03) and the “ki, rate constant” value ([5]; acetylcholinesterase) was 2.8±0.48(0.03) x 10^-4.M^-1.min^-1. The “ki (paraoxon) relative to the wild type” value [6] was 7.1±0.6 (0.07) and the “ki, rate constant” value ([6]; acetylcholinesterase) was 7.1±0.6 (0.07) x 10^-4.M^-1.min^-1.
Compound “recombinant HuAChE mutant Tyr133Ala (Homo sapiens; Y164A)” has a Km (CC(=O)SCC[N+](C)(C)C) of 5750 µM.
In the case of “recombinant human acetylcholinesterase (HuAChE), wild type (Homo sapiens)”, the Km (CC(=O)SCCC(C)(C)C) is reported as 280 ± 80 µM.
